We go through five compounds from PMC12292992, “Betulinic Acid ω-Triphenylphosphonium Alkyl Esters: Antiproliferative Activities and In Silico Pharmacokinetic Profiles” (Biomedicines, 2025).

By IC50 is commonly meant the concentration that inhibits the measured activity by half. The low end stands for greater potency, the high end for weaker potency.

Series [1] concerns MRC-5 normal human lung fibroblasts. The series is described as follows: MTT cell viability assay, normal lung fibroblasts. As to conditions: MRC5, MRC-5, 72 h. The class given is cell-based. The procedure:
(§1) Human cell lines were obtained from the American Type Culture Collection (ATCC, Manassas, VA, USA). Normal lung MRC-5 fibroblasts (ATCC® CCL-171™), SK-MES-1 lung cancer cells (ATCC® HTB-58™), and J82 bladder carcinoma cells (ATCC® HTB-1™) were grown as monolayers in Eagle’s minimum essential medium (MEM) with Earle’s salts, 2 mM L-glutamine, and 1.5 g/L sodium bicarbonate. Gastric epithelial AGS cells (ATCC® CRL-1739™) were grown as monolayers in Ham’s F-12 medium containing 1 mM L-glutamine and 1.5 g/L sodium bicarbonate. Promyelocytic leukemia HL-60 (ATCC® CCL-240™), colorectal adenocarcinoma HCT-15 (ATCC® CCL-225™), metastatic colorectal COLO205 (ATCC® CCL-222™), and breast cancer AU565 (ATCC® CRL-2351™, ER^−-HER2/neu^+) cells were grown in suspension in an RPMI-1640 medium containing 1 mM sodium pyruvate and 2.0 g/L sodium bicarbonate. Human breast cancer MCF-7 (ATCC® HTB-22™, ER^+-HER2/neu^−) and MDA-MB-231 (ATCC® HTB-26™, ER^−-HER2/neu^−) cells were grown as monolayers in DMEM medium. All media were supplemented with 10% heat-inactivated fetal bovine serum (HI-FBS), 100 IU/mL penicillin G, and 100 µg/mL streptomycin. Cells were maintained at 37 °C in a humidified incubator with 5% CO2.
(§2) MRC-5, SK-MES-1, J82, and AGS cells were seeded at a density of 5 × 10^4 cells/mL in 96-well plates. COLO205, HCT-15, MCF-7, MDA-MB-231, and AU565 cells were seeded at 1 × 10^5 cells/mL, while HL-60 cells were plated at 3 × 10^5 cells/mL. A volume of 100 µL of the cell suspension was added to each well. After 24 h, the compounds were added in increasing concentrations (ranging from 0 to 100 µM), and cells were incubated for 24, 48, or 72 h. The compounds were dissolved in DMSO and diluted in complete medium to a final concentration of 0.5% DMSO. Cells treated with 0.5% DMSO in complete medium were used as viability controls (100%). Etoposide (98% purity, Sigma-Aldrich, St. Louis, MO, USA) was used as the reference compound. Each concentration was tested in quadruplicate, and each experiment was performed twice using independent cell preparations. At the end of the incubation period, cell viability was determined using the MTT reduction assay. The results were transformed into percentages relative to controls, and IC50 values were obtained graphically from the dose–response curves. Results are presented as IC50 values ± standard deviation (SD).

The subject of the next series is AGS cells. The series can be described thus: MTT cell viability assay, gastric adenocarcinoma. The class given is cell-based. The conditions noted are these: Homo sapiens, 72 h. The procedure:
as §1, §2
A general note: Tetrazolium dyes change colour on reduction, which living cells bring about.

The test system of another series is SK-MES-1 cells. The series is described as follows: MTT cell viability assay, lung cancer. The conditions noted are these: Homo sapiens, SK-MES-1, 72 h. The class given is cell-based. The protocol: as §1, §2
Another series relates to J82 cells. The series can be described thus: MTT cell viability assay, bladder carcinoma. It counts as cell-based. As to conditions: Homo sapiens, J82, 72 h. The protocol: as §1, §2
A further series has as its system HL-60 cells. The series can be described thus: MTT cell viability assay, leukemia. It counts as cell-based. As to conditions: Homo sapiens, HL-60, 72 h. The procedure: as §1, §2
A further series concerns HCT-15 cells. The series is described as follows: MTT cell viability assay, colorectal carcinoma. It counts as cell-based, human. As to conditions: Homo sapiens. The procedure: as §1, §2
A further series deals with COLO205 cells. The series can be described thus: MTT cell viability assay, metastatic colorectal cancer. The class given is cell-based, human. As to conditions: Homo sapiens, COLO 205. The procedure: as §1, §2
Another series relates to AU565 cells. The series is described as follows: MTT cell viability assay, mammary carcinoma. It counts as cell-based, human. The conditions noted are these: Homo sapiens. The procedure: as §1, §2
Series [2] deals with MCF-7 cells. The series can be described thus: MTT cell viability assay, mammary carcinoma. The class given is cell-based. As to conditions: Homo sapiens, MCF7. The protocol:
as §1, §2

The next series deals with MDA-MB-231 cells. The series is described as follows: MTT cell viability assay, mammary carcinoma. As to conditions: Homo sapiens. It counts as cell-based. The procedure: as §1, §2
In series [3] the test system is MCF-7 cells. The series can be described thus: Oxygen consumption assay (Clark-type electrode). It counts as cell-based, human. The conditions noted are these: MCF-7, 10 and 20 µM. The protocol: Oxygen consumption of the tumor cells was measured polarographically using a Clark-type electrode (Yellow Springs Instruments, Dayton, OH, USA) placed horizontally in a cell of 0.6 mL volume at 25 °C, coupled to a YSI monitor (model 53). The electrode signal was recorded in a computer connected to a DI-148U module with a USB interface. Data were acquired using the Windaq Acquisition Waveform Recorder software v3.36 (DataQ Instruments, Akron, OH, USA). The test medium used contained 150 mM NaCl, 5 mM KCl, and 1 mM Tris-HCl, and pH 7.4. 5 mM glutamine was added with the cells and test compounds. Oxygen consumption was recorded when the cell aliquots (6 × 10^6 cells) were added. Oligomycin (1.5 μg/mL) was added as an inhibitor of the Fo subunit of ATP synthase prior to the incorporation of the compounds under study. FCCP (carbonyl cyanide-p-trifluoromethoxyphenylhydrazone, 50 nM) was used prior to the addition of test compounds as an internal control to calibrate the electrode system and confirm the maximum uncoupling capacity of the cells.

The subject of a further series is human cancer cell lines. The series is described as follows: MTT cell viability, summary over the human cancer cell lines. The class given is cell-based. The conditions noted are these: nine human cancer cell lines, relative to BA, summary statement. The procedure:
as §1, §2

On the set-up of series [4]: method as in PMID 17576843, PMID 17638699. As to conditions: oral administration, healthy individuals and patients with HIV, cited from earlier work.

For `C=C(C)[C@@H]1CC[C@]2(C(=O)O)CC[C@]3(C)[C@H](CC[C@@H]4[C@@]5(C)CC[C@H](O)C(C)(C)[C@@H]5CC[C@]43C)[C@@H]12` [BA, 3β-hydroxy-lup-20(29)-en-28-oic acid, reference compound], the IC50 was determined as 56700 ± 4300 nM in series [1]; 14100 ± 500 nM in the series on AGS cells; 44800 ± 2700 nM in the series on SK-MES-1 cells; 32800 ± 1700 nM in the series on J82 cells; 21900 ± 1500 nM with HL-60 cells; 43800 ± 3640 nM in the series with HCT-15 cells (HCT-15, 24 h). The IC50 with HCT-15 cells (HCT-15, 48 h) is 9470 ± 3100 nM; with HCT-15 cells (HCT-15, 72 h), 3890 ± 1300 nM; in the series with COLO205 cells (COLO205, 24 h), 97700 ± 1020 nM; in the series on COLO205 cells (COLO205, 48 h), 74600 ± 2870 nM; in the series on COLO205 cells (COLO205, 72 h), 34300 ± 2580 nM; with AU565 cells (AU565, 24 h), 33090 ± 170 nM. In addition, the IC50 in the series on AU565 cells (AU565, 48 h) is 9290 ± 980 nM.

`C=C(C)[C@@H]1CC[C@]2(C(=O)OCCCCC[P+](c3ccccc3)(c3ccccc3)c3ccccc3)CC[C@]3(C)C(CCC4[C@@]5(C)CC[C@H](O)C(C)(C)C5CC[C@]43C)C12` (stereo partly drawn) [BA-C5-TPP^+Br^−, 5-Triphenylphosphoniopentyl 3β-hydroxylup-20(29)-en-28-oate bromide]: the IC50 worked out at 830 ± 20 nM in [1]; 770 ± 80 nM with AGS cells; 470 ± 40 nM in the series with SK-MES-1 cells; 1220 ± 10 nM with J82 cells; 630 ± 50 nM in the series on HL-60 cells; 5170 ± 1320 nM with HCT-15 cells (HCT-15, 24 h). Also, the IC50 turned out to be 1930 ± 360 nM with HCT-15 cells (HCT-15, 48 h); 1930 ± 320 nM in the series with HCT-15 cells (HCT-15, 72 h); 4320 ± 2400 nM in the series on COLO205 cells (COLO205, 24 h); 1620 ± 1150 nM in the series on COLO205 cells (COLO205, 48 h); 1610 ± 20 nM in the series on COLO205 cells (COLO205, 72 h); 8680 ± 1270 nM with MCF-7 cells [2] (MCF-7, 24 h). In addition, the IC50 in the series with MCF-7 cells [2] (MCF-7, 48 h) was 1770 ± 400 nM; in the series on MDA-MB-231 cells (MDA-MB-231, 24 h) it was 5500 ± 600 nM; in the series with MDA-MB-231 cells (MDA-MB-231, 48 h), 2530 ± 650 nM; in the series on AU565 cells (AU565, 24 h), 5910 ± 80 nM; with AU565 cells (AU565, 48 h) it was 1020 ± 180 nM. Further, in the series with MCF-7 cells [3], the mitochondrial uncoupling effect entry is given as “concentration-dependent uncoupling effect, though less pronounced than that of BA-C4-TPP^+Br^−”. Further, in the series on human cancer cell lines, the increase in potency result is “over 100 fold”.

For the compound `C=C(C)[C@@H]1CC[C@]2(C(=O)OCCCCCC[P+](c3ccccc3)(c3ccccc3)c3ccccc3)CC[C@]3(C)C(CCC4[C@@]5(C)CC[C@H](O)C(C)(C)C5CC[C@]43C)C12` (stereo partly drawn) [BA-C6-TPP^+Br^−, 6-Triphenylphosphoniohexyl 3β-hydroxylup-20(29)-en-28-oate bromide], the IC50 was determined as 1350 ± 100 nM in series [1]; 1270 ± 20 nM with AGS cells; 680 ± 10 nM in the series on SK-MES-1 cells; 1710 ± 50 nM in the series on J82 cells; 910 ± 10 nM in the series with HL-60 cells; 9040 ± 2800 nM in the series on HCT-15 cells (HCT-15, 24 h). The IC50 turned out to be 2890 ± 240 nM in the series on HCT-15 cells (HCT-15, 48 h); 2400 ± 130 nM with HCT-15 cells (HCT-15, 72 h); 4870 ± 1430 nM in the series on COLO205 cells (COLO205, 24 h); 840 ± 390 nM in the series with COLO205 cells (COLO205, 48 h); 970 ± 290 nM in the series on COLO205 cells (COLO205, 72 h); 7690 ± 1320 nM in the series on MCF-7 cells [2] (MCF-7, 24 h). Moreover, the IC50 with MCF-7 cells [2] (MCF-7, 48 h) is 4620 ± 530 nM; in the series with MDA-MB-231 cells (MDA-MB-231, 24 h), 7280 ± 530 nM; in the series on MDA-MB-231 cells (MDA-MB-231, 48 h), 2660 ± 80 nM; in the series with AU565 cells (AU565, 24 h) it was 6370 ± 310 nM; with AU565 cells (AU565, 48 h), 1330 ± 120 nM. Also, in the series on MCF-7 cells [3], the mitochondrial uncoupling effect entry is reported as “not seen at the tested concentrations”. For the same compound, in the series on human cancer cell lines, the increase in potency result is given as “over 100 fold”.

Turning to `C=C(C)[C@@H]1CC[C@]2(C(=O)O)CC[C@]3(C)[C@H](CC[C@@H]4[C@@]5(C)CC[C@H](OC(=O)CC(C)(C)C(=O)O)C(C)(C)[C@@H]5CC[C@]43C)[C@@H]12` [Compound 4, 3-O-(3′,3′-Dimethylsuccinyl)-BA], the tolerance result in [4] (all studied doses) is “good tolerance at all studied doses”. For the same compound, in [4], the half-life entry is “long half-life” and the oral absorption entry was “rapid oral absorption”.

For the compound `COc1cc([C@@H]2c3cc4c(cc3[C@@H](O[C@@H]3O[C@@H]5CO[C@@H](C)O[C@H]5[C@H](O)[C@H]3O)[C@H]3COC(=O)[C@H]23)OCO4)cc(OC)c1O` [Etoposide, reference compound], the IC50 in series [1] amounted to 3960 ± 210 nM; in the series with AGS cells it was 460 ± 40 nM; in the series with SK-MES-1 cells, 2610 ± 10 nM; in the series with J82 cells it was 2850 ± 20 nM; with HL-60 cells, 820 ± 10 nM.
